Bounds are passed on as bounds.

The test system of assay [1] is T-Rex 293 cells lacking increased expression of estrogen receptor alpha protein. Put plainly: Cellular growth inhibition assay, T-Rex 293 cells, (−) doxycycline. The assay is classed as cell-based. The settings on record: T-REx-293, 72 h, T-Rex 293 cells without doxycycline, 72 hours, CellTiter-Glo 2.0; read-out: (−) Dox TRex ERa (GI50). In short, it runs like this:
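Cells of an inducible ERα-expressing T-Rex 293 clone are seeded in charcoal-dextran FBS medium with or without 3 ng/mL doxycycline, then treated after 24 h with compound dilutions (0.5% DMSO) for 72 h. Growth inhibition is measured by CellTiter-Glo luminescence and expressed as GI50.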

The test system of assay [2] is MCF7 cells (ATCC #HTB-22). As to the kind of experiment: Cellular growth inhibition assay, MCF7 cells purchased from ATCC. As to conditions: Homo sapiens, MCF7, 144 h, Table 8-A; MCF7 cells purchased from ATCC; six days; CellTiter-Glo; read-out: GI50. The assay is classed as cell-based. In short, it runs like this:
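GI50 values come from a four-parameter fit of CellTiter-Glo 2.0 luminescence after six days of compound exposure at 37° C. Seeding density depended on the source: 225 cells/well for ECACC MCF7, 1,500 for ATCC. Medium was RPMI 1640 with 10% FBS and 0.2 U/ml insulin.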

The target in another assay is T1, BRD4-BD1 (Homo sapiens, UniProt O60885).
T1 construct: made in house; host or cells: T7 phage grown in E. coli host derived from BL21
Put plainly: Binding affinity to BRD4-BD1 (bromoKdELECT assay). The protocol:
Exemplary compounds were tested for ability to bind to BRD4-BD 1.
Compounds were tested using a bromoKdELECT assay. T7 phage strains displaying bromodomains were grown in parallel in 24-well blocks in an E. coli host derived from the BL21 strain. E. coli were grown to log-phase and infected with T7 phage from a frozen stock (multiplicity of infection=0.4) and incubated with shaking at 32° C. until lysis (90-150 minutes). The lysates were centrifuged (5,000×g) and filtered ([…]) to remove cell debris. […] The liganded beads were blocked with excess biotin and washed with blocking buffer (SeaBlock (Pierce), 1% BSA, 0.05% Tween 20, 1 mM DTT) to remove unbound ligand and to reduce nonspecific phage binding. […] Test compounds were prepared as 1000× stocks in 100% DMSO. Kds were determined using an 11-point 3-fold compound dilution series with one DMSO control point. […] The compounds were then diluted directly into the assays such that the final concentration of DMSO was 0.09%. All reactions performed in polypropylene 384-well plates. Each was a final volume of 0.02 ml. […] The bromodomain concentration in the eluates was measured by qPCR.

Usually GI50 stands for the concentration at which growth is held to half of that of the control. In general, Kd refers to the concentration at which binding is half-saturated. The low end stands for tighter binding, the high end for weaker binding. Turning to `CCN(CCCCCCCCNC(=O)C[C@@H]1N=C(c2ccc(Cl)cc2)c2c(sc(C)c2C)-n2c(C)nnc21)CCOc1ccc(C(=O)c2c(-c3ccc(O)cc3)sc3cc(O)ccc23)cc1` [I-2, (S)-2-(4-(4-chlorophenyl)-2,3,9-trimethyl-6H-thieno[3,2-f][1,2,4]triazolo[4,3-a][1,4]diazepin-6-yl)-N-(8-(ethyl(2-(4-(6-hydroxy-2-(4-hydroxyphenyl)benzo[b]thiophene-3-carbonyl)phenoxy)ethyl)amino)octyl)acetamide], the GI50 in assay [1] and in assay [2] was 50 to 500 nM in each case. Besides, the dissociation constant (Kd) on BRD4-BD1 fell in the range of 50 to 500 nM.

As for `CCN(CCOCCOCCNC(=O)C[C@@H]1N=C(c2ccc(Cl)cc2)c2c(sc(C)c2C)-n2c(C)nnc21)CCOc1ccc(C(=O)c2c(-c3ccc(O)cc3)sc3cc(O)ccc23)cc1` [I-3, (S)-2-(4-(4-chlorophenyl)-2,3,9-trimethyl-6H-thieno[3,2-f][1,2,4]triazolo[4,3-a][1,4]diazepin-6-yl)-N-(2-(2-(2-(ethyl(2-(4-(6-hydroxy-2-(4-hydroxyphenyl)benzo[b]thiophene-3-carbonyl)phenoxy)ethyl)amino)ethoxy)ethoxy)ethyl) acetamide], the GI50 in assay [1] fell in the range of 500 to 2500 nM; in assay [2] it was 50 to 500 nM. The molecule also yielded a dissociation constant Kd on BRD4-BD1 of less than 50 nM.
